Experimental data reported in ChEMBL document CHEMBL3396985, “Nanomolar inhibitors of Mycobacterium tuberculosis glutamine synthetase 1: synthesis, biological evaluation and X-ray crystallographic studies” (Bioorg Med Chem Lett, 2015).
Converted amounts (≈) assume the structure as drawn. The source made the active and inactive calls. The calls are words filed in the database; no cut-off is given here.

Key:
[1] = system: HepG2; test: Cytotoxicity against human HepG2 cells after 40 hrs by celltiter Glo assay; format: cell-based; settings: HepG2, 40 h
[2] = system: Mycobacterium tuberculosis; test: Antimycobacterial activity against Mycobacterium tuberculosis assessed as inhibition of microbial proliferation after 6 days by cell titer blue reagent based assay; format: functional; settings: 144 h
[3] = Inhibition of Mycobacterium tuberculosis glutamine synthetase 1 assessed as reduction in ADP formation incubated 1 hr in presence of glutamate, ammonium chloride and ATP
[4] = Lipophilicity, log D of the compound; format: physicochemical; settings: octanol/water
[5] = system: Mycobacterium tuberculosis; test: ATP competitive inhibition of Mycobacterium tuberculosis glutamine synthetase 1 assessed as reduction in ADP formation incubated 1 hr in presence of glutamate, ammonium chloride and ATP
[6] = system: Mycobacterium tuberculosis; test: microbe, parasite or virus in culture; settings: H37Rv ATCC 25618
Description: Antimycobacterial activity against Mycobacterium tuberculosis H37Rv ATCC 25618 assessed as inhibition of microbial proliferation

In the case of `O=c1[nH]c2c(n3ccnc13)Cc1c-2cccc1-c1cccc2ncccc12`, the IC50 [1] is reported as > 30 µM, the IC80 [2] is reported as > 30 µM and the MIC [2] is reported as > 30 µM. The IC50 [3] was 7000 nM and the logD [4] was 1.02.

In the case of `CN(C)CCCn1c2c(n3ccnc3c1=O)Cc1c(-c3ccccn3)cccc1-2`, the IC50 [1] is reported as > 30 µM, the IC80 [2] is reported as > 30 µM and the MIC [2] is reported as > 30 µM. The IC50 [3] was 857 nM.

For `O=c1[nH]c2c(n3ccnc13)Cc1c(Br)cccc1-2`, the IC50 [1] was > 30 µM, the IC80 [2] was > 30 µM and the MIC [2] was > 30 µM. For the same molecule, the IC50 [3] was > 30 nM and the logD [4] was 1.77.

Work on `O=c1[nH]c2c(n3ccnc13)Cc1c(-c3cccc(Cl)c3)cccc1-2` yielded an IC50 [1] of 15 µM, an IC80 [2] of 22 µM and an MIC [2] of 22 µM. For the same molecule, the IC50 [3] was 610 nM and the logD [4] was 2.38.

For `O=c1c2nccn2c2c(n1C1CC1)-c1cccc(-c3ccccn3)c1C2`, the IC50 [1] was > 30 µM, the IC80 [2] was > 30 µM and the MIC [2] was > 30 µM. It also gave an IC50 [3] of 456 nM.

For `COc1cccc(-c2cccc3c2Cc2c-3[nH]c(=O)c3nccn23)c1`, the IC50 [1] was > 30 µM, the IC80 [2] was > 30 µM and the MIC [2] was > 30 µM. It also gave an IC50 [3] of 51 nM and a logD [4] of 1.87.

In the case of `COCCn1c2c(n3ccnc3c1=O)Cc1c(-c3ccccc3)cccc1-2`, the IC50 [1] is reported as 23 µM, the IC80 [2] is reported as > 30 µM and the MIC [2] is reported as > 30 µM. The IC50 [3] was 219 nM.

For `Cn1c2c(n3ccnc3c1=O)Cc1c(-c3ccccc3)cccc1-2`, the IC50 [1] was > 30 µM, the IC80 [2] was > 30 µM and the MIC [2] was > 30 µM. The IC50 [3] was 170 nM and the logD [4] was 2.25.

For `C=CCn1c2c(n3ccnc3c1=O)Cc1c(-c3ccccc3)cccc1-2`, the IC50 [1] was > 30 µM, the IC80 [2] was > 30 µM and the MIC [2] was > 30 µM. The IC50 [3] was 333 nM and the logD [4] was 2.7.

`O=c1c2nccn2c2c(n1Cc1ccccc1)-c1cccc(-c3ccccc3)c1C2` showed an IC50 [1] of 20 µM, an IC80 [2] of 29 µM and an MIC [2] of 29 µM. For the same molecule, the IC50 [3] was 663 nM and the logD [4] was 3.33.

In the case of `CC(=O)Nc1cccc2c1Cc1c-2[nH]c(=O)c2nccn12`, the IC50 [1] is reported as > 30 µM, the IC80 [2] is reported as > 30 µM and the MIC [2] is reported as > 30 µM. The IC50 [3] was 2100 nM.

With `O=c1[nH]c2c(n3ccnc13)Cc1c(-c3ccccc3)cccc1-2` the IC50 [1] was > 30 µM, the inhibition [5] was “Active” and the IC80 [2] was > 30 µM. The MIC [2] was > 30 µM, the IC50 [3] was 31 nM and the logD [4] was 3.52.

With `C[S@](=N)(=O)CC[C@H](N)C(=O)O` the MIC [6] was 10 µM (≈ 1.8 µg/mL).

In the case of `O=c1[nH]c2c(n3ccnc13)Cc1c(-c3cccnc3)cccc1-2`, the IC50 [1] is reported as > 30 µM, the IC80 [2] is reported as 29 µM and the MIC [2] is reported as 29 µM. It also gave an IC50 [3] of 31 nM and a logD [4] of 0.26.

In the case of `C=CCCn1c2c(n3ccnc3c1=O)Cc1c(-c3cccnc3)cccc1-2`, the IC50 [1] is reported as > 30 µM, the IC80 [2] is reported as > 30 µM and the MIC [2] is reported as > 30 µM. It also gave an IC50 [3] of 7 nM.

With `CC(C)Cn1c2c(n3ccnc3c1=O)Cc1c(-c3cccnc3)cccc1-2` the IC50 [1] was > 30 µM, the IC80 [2] was > 30 µM and the MIC [2] was > 30 µM. It also gave an IC50 [3] of 66 nM.

In the case of `COc1cccc(-c2cccc3c2Cc2c-3n(CCCN(C)C)c(=O)c3nccn23)c1`, the IC50 [1] is reported as 15 µM, the IC80 [2] is reported as > 30 µM and the MIC [2] is reported as > 30 µM. The IC50 [3] was 84 nM.

In the case of `CN(C)CCCn1c2c(n3ccnc3c1=O)Cc1c(-c3cccnc3)cccc1-2`, the IC50 [1] is reported as > 30 µM, the IC80 [2] is reported as > 30 µM and the MIC [2] is reported as > 30 µM. The IC50 [3] was 131 nM.
